Laboratory results from patent US10239832B2, “N-(1-hydroxy-3-(pyrrolidinyl)propan-2-yl)pyrrolidine-3-carboxamide derivatives as glucosylceramide synthase inhibitors” (BIOMARIN PHARMACEUTICAL INC., priority 2013, dated 2019).

Molecular target: T1, GCS (Canis lupus familiaris, UniProt A0A8I3MXG6)
T1 construct: endogenous in cells; host or cells: MDCK (Madin-Darby canine kidney) cells, whole-cell lysate
T1 sequence (A0A8I3MXG6 1-394): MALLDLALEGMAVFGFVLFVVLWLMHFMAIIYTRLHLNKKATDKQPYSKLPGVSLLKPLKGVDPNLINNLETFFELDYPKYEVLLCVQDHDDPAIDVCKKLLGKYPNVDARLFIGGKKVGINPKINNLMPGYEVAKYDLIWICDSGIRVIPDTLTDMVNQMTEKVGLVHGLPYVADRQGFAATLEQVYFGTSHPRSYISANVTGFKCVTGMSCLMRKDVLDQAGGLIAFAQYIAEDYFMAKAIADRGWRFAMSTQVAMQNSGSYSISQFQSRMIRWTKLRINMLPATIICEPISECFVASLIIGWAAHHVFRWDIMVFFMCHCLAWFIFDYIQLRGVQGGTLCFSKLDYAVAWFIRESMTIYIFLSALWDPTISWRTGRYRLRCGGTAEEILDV
Experiment: GCS enzymatic assay (MDCK cell lysate, NBD-ceramide to glucosylceramide, LC/MS)
Type: biochemical, canine
Conditions: Table 2, the table does not say which of the assays; for Data Range (% inhibition): class symbols D, E, F, NA (not active); for IC50: class symbols A, B, C, read-out: Data Range (IC50 values)
Procedure, shortened: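 IC50 or percent inhibition came from LC/MS/MS (ESI+, MRM) of NBD-ceramide and glucosylceramide, with tolbutamide as internal standard. The reaction used MDCK (canine) cell lysate as the enzyme source and was ended with acetonitrile. Mock wells received 0.1% DMSO.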

Row | SMILES | Data Range (% inhibition) | IC50
1 | O=C(N[C@H](CN1CCCCC1)[C@H](O)c1ccc2c(c1)OCCO2)[C@@H]1CCN(c2ccc(F)cc2)C1 [Compound 46, (R)-N-((1R,2R)-1-(2,3-dihydrobenzo[b][1,4]dioxin-6-yl)-1-hydroxy-3-(piperidin-1-yl)propan-2-yl)-1-(4-fluorophenyl)pyrrolidine-3-carboxamide] | F (1-49% (or less than 50%)) | 
2 | O=C(N[C@H](CN1CCCCC1)[C@H](O)c1ccc2c(c1)OCCO2)C1CCN(c2ccc(F)cc2)C1 (stereo partly drawn) [Compound 46A, N-((1R,2R)-1-(2,3-dihydrobenzo[b][1,4]dioxin-6-yl)-1-hydroxy-3-(piperidin-1-yl)propan-2-yl)-1-(4-fluorophenyl)pyrrolidine-3-carboxamide] | F (1-49% (or less than 50%)) | 
3 | O=C(N[C@H](CN1CCCCC1)[C@H](O)c1ccc2c(c1)OCCO2)[C@H]1CCN(c2ccc(F)cc2)C1 [Compound 46B, (S)-N-((1R,2R)-1-(2,3-dihydrobenzo[b][1,4]dioxin-6-yl)-1-hydroxy-3-(piperidin-1-yl)propan-2-yl)-1-(4-fluorophenyl)pyrrolidine-3-carboxamide] | NA (not active—a negative value was generated for % inhibition) | 
4 | O=C(N[C@H](CN1CCC1)[C@H](O)c1cc(F)c2c(c1)OCCO2)[C@@H]1CCN(c2ccc3cc(F)ccc3c2)C1 [Compound 47, (R)-N-((1R,2R)-3-(azetidin-1-yl)-1-(8-fluoro-2,3-dihydrobenzo[b][1,4]dioxin-6-yl)-1-hydroxypropan-2-yl)-1-(6-fluoronaphthalen-2-yl)pyrrolidine-3-carboxamide] |  | 1 to 30 nM
5 | O=C(N[C@H](CN1CCC1)[C@H](O)c1cc(F)c2c(c1)OCCO2)C1CCN(c2ccc3cc(F)ccc3c2)C1 (stereo partly drawn) [Compound 47A, N-((1R,2R)-3-(azetidin-1-yl)-1-(8-fluoro-2,3-dihydrobenzo[b][1,4]dioxin-6-yl)-1-hydroxypropan-2-yl)-1-(6-fluoronaphthalen-2-yl)pyrrolidine-3-carboxamide] |  | 1 to 30 nM
6 | O=C(N[C@H](CN1CCC1)[C@H](O)c1cc(F)c2c(c1)OCCO2)[C@H]1CCN(c2ccc3cc(F)ccc3c2)C1 [Compound 47B, (S)-N-((1R,2R)-3-(azetidin-1-yl)-1-(8-fluoro-2,3-dihydrobenzo[b][1,4]dioxin-6-yl)-1-hydroxypropan-2-yl)-1-(6-fluoronaphthalen-2-yl)pyrrolidine-3-carboxamide] |  | 30 to 100 nM
7 | O=C(N[C@H](CN1CCCC1)[C@H](O)c1cc(F)c2c(c1)OCCO2)[C@@H]1CCN(c2ccccn2)C1 [Compound 48, (R)-N-((1R,2R)-1-(8-fluoro-2,3-dihydrobenzo[b][1,4]dioxin-6-yl)-1-hydroxy-3-(pyrrolidin-1-yl)propan-2-yl)-1-(pyridin-2-yl)pyrrolidine-3-carboxamide] |  | 1 to 30 nM
8 | O=C(N[C@H](CN1CCCC1)[C@H](O)c1cc(F)c2c(c1)OCCO2)[C@H]1CCN(c2ccccn2)C1 [Compound 48A, (S)-N-((1R,2R)-1-(8-fluoro-2,3-dihydrobenzo[b][1,4]dioxin-6-yl)-1-hydroxy-3-(pyrrolidin-1-yl)propan-2-yl)-1-(pyridin-2-yl)pyrrolidine-3-carboxamide] | F (1-49% (or less than 50%)) | 
9 | CN1CCC(Oc2ccc([C@@H](O)[C@@H](CN3CCCC3)NC(=O)[C@@H]3CCN(c4ccc(Cl)cc4)C3)cc2Cl)CC1 [Compound 49, (R)-N-((1R,2R)-1-(3-chloro-4-((1-methylpiperidin-4-yl)oxy)phenyl)-1-hydroxy-3-(pyrrolidin-1-yl)propan-2-yl)-1-(4-chlorophenyl)pyrrolidine-3-carboxamide] |  | 30 to 100 nM
10 | CN1CCC(Oc2ccc([C@@H](O)[C@@H](CN3CCCC3)NC(=O)[C@H]3CCN(c4ccc(Cl)cc4)C3)cc2Cl)CC1 [Compound 49A, (S)-N-((1R,2R)-1-(3-chloro-4-((1-methylpiperidin-4-yl)oxy)phenyl)-1-hydroxy-3-(pyrrolidin-1-yl)propan-2-yl)-1-(4-chlorophenyl)pyrrolidine-3-carboxamide] | F (1-49% (or less than 50%)) | 
11 | O=C(N[C@H](CN1CCCC1)[C@H](O)c1ccc(OC2CCOCC2)c(Cl)c1)[C@@H]1CCN(c2ccc3cc(F)ccc3c2)C1 [Compound 50, (R)-N-((1R,2R)-1-(3-chloro-4-((tetrahydro-2H-pyran-4-yl)oxy)phenyl)-1-hydroxy-3-(pyrrolidin-1-yl)propan-2-yl)-1-(6-fluoronaphthalen-2-yl)pyrrolidine-3-carboxamide] |  | 1 to 30 nM
12 | O=C(N[C@H](CN1CCCC1)[C@H](O)c1ccc(OC2CCOCC2)c(Cl)c1)[C@H]1CCN(c2ccc3cc(F)ccc3c2)C1 [Compound 50A, (S)-N-((1R,2R)-1-(3-chloro-4-((tetrahydro-2H-pyran-4-yl)oxy)phenyl)-1-hydroxy-3-(pyrrolidin-1-yl)propan-2-yl)-1-(6-fluoronaphthalen-2-yl)pyrrolidine-3-carboxamide] | E (50-74% (or less than 75%)) | 
13 | CC1(C)CCc2cc([C@@H](O)[C@@H](CN3CCCC3)NC(=O)[C@@H]3CCN(c4ccc(Cl)cc4)C3)ccc2O1 [Compound 51, (R)-1-(4-chlorophenyl)-N-((1R,2R)-1-(2,2-dimethylchroman-6-yl)-1-hydroxy-3-(pyrrolidin-1-yl)propan-2-yl)pyrrolidine-3-carboxamide] | F (1-49% (or less than 50%)) | 
14 | CC1(C)CCc2cc([C@@H](O)[C@@H](CN3CCCC3)NC(=O)[C@H]3CCN(c4ccc(Cl)cc4)C3)ccc2O1 [Compound 51A, (S)-1-(4-chlorophenyl)-N-((1R,2R)-1-(2,2-dimethylchroman-6-yl)-1-hydroxy-3-(pyrrolidin-1-yl)propan-2-yl)pyrrolidine-3-carboxamide] | NA (not active—a negative value was generated for % inhibition) | 
15 | O=C(N[C@H](CN1CCCC1)[C@H](O)c1cc(F)c2c(c1)OCCO2)[C@@H]1CCN(c2ccc3cc(F)ccc3c2)C1 [Compound 52, (R)-N-((1R,2R)-1-(8-fluoro-2,3-dihydrobenzo[b][1,4]dioxin-6-yl)-1-hydroxy-3-(pyrrolidin-1-yl)propan-2-yl)-1-(6-fluoronaphthalen-2-yl)pyrrolidine-3-carboxamide] |  | 1 to 30 nM
16 | O=C(N[C@H](CN1CCCC1)[C@H](O)c1cc(F)c2c(c1)OCCO2)[C@H]1CCN(c2ccc3cc(F)ccc3c2)C1 [Compound 52A, (S)-N-((1R,2R)-1-(8-fluoro-2,3-dihydrobenzo[b][1,4]dioxin-6-yl)-1-hydroxy-3-(pyrrolidin-1-yl)propan-2-yl)-1-(6-fluoronaphthalen-2-yl)pyrrolidine-3-carboxamide] | E (50-74% (or less than 75%)) | 
17 | O=C(N[C@H](CN1CCCC1)[C@H](O)c1ccc2c(c1)OCCO2)[C@@H]1CCN(c2ccc3ccsc3c2)C1 [Compound 53, (R)-1-(benzo[b]thiophen-6-yl)-N-((1R,2R)-1-(2,3-dihydrobenzo[b][1,4]dioxin-6-yl)-1-hydroxy-3-(pyrrolidin-1-yl)propan-2-yl)pyrrolidine-3-carboxamide] | E (50-74% (or less than 75%)) | 
18 | O=C(N[C@H](CN1CCCC1)[C@H](O)c1ccc2c(c1)OCCO2)C1CCN(c2ccc3ccsc3c2)C1 (stereo partly drawn) [Compound 53C, 1-(benzo[b]thiophen-6-yl)-N-((1R,2R)-1-(2,3-dihydrobenzo[b][1,4]dioxin-6-yl)-1-hydroxy-3-(pyrrolidin-1-yl)propan-2-yl)pyrrolidine-3-carboxamide] |  | 30 to 100 nM
19 | O=C(N[C@H](CN1CCCC1)[C@H](O)c1ccc2c(c1)OCCO2)[C@H]1CCN(c2ccc3ccsc3c2)C1 [Compound 53D, (S)-1-(benzo[b]thiophen-6-yl)-N-((1R,2R)-1-(2,3-dihydrobenzo[b][1,4]dioxin-6-yl)-1-hydroxy-3-(pyrrolidin-1-yl)propan-2-yl)pyrrolidine-3-carboxamide] |  | 1 to 30 nM
20 | O=C(N[C@H](CN1CCCC1)[C@H](O)c1ccc(OC2CC2)c(Cl)c1)[C@@H]1CCN(c2ccccn2)C1 [Compound 54, (R)-N-((1R,2R)-1-(3-chloro-4-cyclopropoxyphenyl)-1-hydroxy-3-(pyrrolidin-1-yl)propan-2-yl)-1-(pyridin-2-yl)pyrrolidine-3-carboxamide] |  | 1 to 30 nM
21 | O=C(N[C@H](CN1CCCC1)[C@H](O)c1ccc(OC2CC2)c(Cl)c1)[C@H]1CCN(c2ccccn2)C1 [Compound 54A, (S)-N-((1R,2R)-1-(3-chloro-4-cyclopropoxyphenyl)-1-hydroxy-3-(pyrrolidin-1-yl)propan-2-yl)-1-(pyridin-2-yl)pyrrolidine-3-carboxamide] | F (1-49% (or less than 50%)) | 
22 | O=C(N[C@H](CN1CCCC1)[C@H](O)c1ccc2c(c1)OCCO2)[C@@H]1CCN(C2Cc3ccccc3C2)C1 [Compound 55, (R)-1-(2,3-dihydro-1H-inden-2-yl)-N-((1R,2R)-1-(2,3-dihydrobenzo[b][1,4]dioxin-6-yl)-1-hydroxy-3-(pyrrolidin-1-yl)propan-2-yl)pyrrolidine-3-carboxamide] | F (1-49% (or less than 50%)) | 
23 | O=C(N[C@H](CN1CCCC1)[C@H](O)c1ccc2c(c1)OCCO2)C1CCN(C2Cc3ccccc3C2)C1 (stereo partly drawn) [Compound 55A, 1-(2,3-dihydro-1H-inden-2-yl)-N-((1R,2R)-1-(2,3-dihydrobenzo[b][1,4]dioxin-6-yl)-1-hydroxy-3-(pyrrolidin-1-yl)propan-2-yl)pyrrolidine-3-carboxamide] | F (1-49% (or less than 50%)) | 
